Results from PMC10089784, “Inhibition of Gluconeogenesis by Boldine in the Perfused Liver: Therapeutical Implication for Glycemic Control” (International Journal of Hepatology, 2023).

Assays:
Format in all cases: cell-based
[1] = biological target: T1, phosphoenolpyruvate carboxykinase (PEPCK) (Rattus norvegicus, UniProt P07379); experiment: enzyme activity in rat liver cytosolic fraction, coupled to malate dehydrogenase (NADH oxidation, […] nm); […] inhibition at […]
T1 construct: gene Pck1; rat liver cytosolic fraction

[2] = biological target: T2, fructose 1,6-bisphosphatase (FBPase-1) (Rattus norvegicus, UniProt P19112); experiment: phosphate release from fructose […],6-bisphosphate in rat liver cytosolic fraction; […] (incomplete) inhibition at […]
T2 construct: gene Fbp1; rat liver cytosolic fraction
T2 sequence (P19112 2-363): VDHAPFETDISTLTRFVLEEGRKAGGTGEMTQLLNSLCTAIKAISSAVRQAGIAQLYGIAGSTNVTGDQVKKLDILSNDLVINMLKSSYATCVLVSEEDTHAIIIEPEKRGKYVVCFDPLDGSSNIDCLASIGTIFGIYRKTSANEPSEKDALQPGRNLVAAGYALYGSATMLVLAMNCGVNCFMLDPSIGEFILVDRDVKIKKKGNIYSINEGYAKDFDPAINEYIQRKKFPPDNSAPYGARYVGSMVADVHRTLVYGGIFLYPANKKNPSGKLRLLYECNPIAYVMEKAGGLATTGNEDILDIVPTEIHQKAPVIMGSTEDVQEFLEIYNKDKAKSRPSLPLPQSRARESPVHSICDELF

[3] = biological target: T3, glucose 6-phosphatase (G6Pase) (Rattus norvegicus, UniProt P43428); experiment: phosphate release from glucose 6-phosphate in isolated rat liver microsomes; […] inhibition at […]
T3 construct: gene G6pc1; isolated rat liver microsomes
T3 sequence (P43428 1-357): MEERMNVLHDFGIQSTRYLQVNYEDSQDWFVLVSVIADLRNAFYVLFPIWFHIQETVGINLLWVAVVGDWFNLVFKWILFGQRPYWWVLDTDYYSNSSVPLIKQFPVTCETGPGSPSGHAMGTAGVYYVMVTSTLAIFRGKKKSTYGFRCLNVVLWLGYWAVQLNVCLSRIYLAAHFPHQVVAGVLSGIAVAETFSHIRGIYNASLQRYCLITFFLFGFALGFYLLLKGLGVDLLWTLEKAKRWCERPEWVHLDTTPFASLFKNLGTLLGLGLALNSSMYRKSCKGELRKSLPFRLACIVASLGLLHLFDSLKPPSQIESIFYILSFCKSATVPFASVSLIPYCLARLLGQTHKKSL

T1 sequence (P07379 whole entry): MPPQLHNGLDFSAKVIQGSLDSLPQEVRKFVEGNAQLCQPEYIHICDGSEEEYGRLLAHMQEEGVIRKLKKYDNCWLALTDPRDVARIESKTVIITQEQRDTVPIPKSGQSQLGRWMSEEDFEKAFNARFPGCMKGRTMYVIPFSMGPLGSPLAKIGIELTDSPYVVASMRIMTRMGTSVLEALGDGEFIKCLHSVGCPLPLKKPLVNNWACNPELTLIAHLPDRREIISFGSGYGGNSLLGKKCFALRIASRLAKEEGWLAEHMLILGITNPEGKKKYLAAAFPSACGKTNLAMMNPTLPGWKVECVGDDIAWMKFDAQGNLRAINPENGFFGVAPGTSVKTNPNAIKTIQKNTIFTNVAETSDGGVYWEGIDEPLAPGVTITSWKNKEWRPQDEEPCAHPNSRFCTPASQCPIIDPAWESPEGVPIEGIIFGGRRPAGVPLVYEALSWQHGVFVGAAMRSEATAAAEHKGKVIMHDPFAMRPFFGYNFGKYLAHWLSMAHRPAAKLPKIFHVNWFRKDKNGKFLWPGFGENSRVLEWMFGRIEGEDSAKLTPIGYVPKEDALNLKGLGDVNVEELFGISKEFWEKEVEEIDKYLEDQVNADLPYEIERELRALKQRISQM

COc1cc2c(cc1O)C[C@H]1c3c(cc(O)c(OC)c3-2)CCN1C [boldine, 1,10-dimethoxy-2,9-dihydroxy aporphine] was tested, and the inhibition at 200 µM [1] was 49%, the inhibition at 200 µM [2] was 42% and the inhibition at 200 µM [3] was 35%.
